From patent publication US7728105B2, “Peptides impairing PBX dependent gene regulation” (St. George's Hospital Medical School, priority 2002, dated 2010)
Entries after “also recorded” stand apart in the source; their conditions may differ.

What was measured:
Assay type in all cases: cell-based, human
[1] = test system: KG1a cells; assay: RT-PCR of stem/progenitor and maturation markers in KG1a cells; details: 7 days of treatment
Protocol: Total RNA was extracted from cultured human cells using the Rneasy mini kit (Quiagen) and following the manufacturer's instructions. 3 μg of RNA was used in subsequent reverse transcription reactions. The RNA was mixed with a poly T15 oligo to 5 microgrammes/ml and heated to 75° C. for 5 minutes. After cooling on ice, the following additional reagents were added; dNTPs to 0.4 mM, RNase OUT (Promega) to 1.6 U/μl, Moloney Murine Leukemia Virus Reverse Transcriptase (M-MLRvT) RnaseH— point mutant (Promega) to 8 U/μl and the appropriate buffer (supplied by the manufacturer) to x1 concentration. The mixture was incubated for one hour at 37° C., heated to 70° C. for two minutes and cooled on ice.
PCR reactions were all performed in a total volume of 40 μl. For each we used 1 μl of the M-MLRvT reaction (as described above), 0.2 nmols of each primer and 20 microliters of Redimix pre-mixed PCR components (Sigma). All reactions were cycled at 94° C. for 30 seconds, 55° C. for 30 seconds and 72° C. for 60 seconds. 30 cycles were used for all primer sets except those for beta-actin, for which 23 cycles were used.

[2] = test system: KG1a, KG1, HL60 and U937 cells; assay: Cell cycle analysis (propidium iodide, flow cytometry) of leukaemic cell lines (Example 1)
Protocol: (§1) Cells to be investigated were harvested and washed in PBS at 400 g for 10 min. Pelleted cells were then fixed in ice-cold 70% ethanol. Fixed cells were subsequently washed twice in PBS (600 g; 10 min) and incubated in 100 μl of ribonuclease (100 μg/ml; Sigma Aldrich) for 5 min (room temperature) prior to addition of 400 μl of propidium iodide (50 μg/ml; Sigma Aldrich) and 30 minutes incubation (37° C.). Cells were then analysed for cell cycle status on FACScan flow cytometer (Becton Dickinson, USA) and using WinMDI and Cylchred softwares.

[3] = test system: KG1a, HL60 and U937 leukaemic cell lines; assay: RT-PCR of HOX/PBX target genes in leukaemic cell lines (Example 3)
Protocol: Total RNA was isolated from liquid nitrogen snap-frozen cells using RNeasy Mini Kit protocol (Qiagen, Crawley, UK). 50 μl reverse transcription reactions using 1 μg of RNA per reaction heated at 75° C. cDNA with 1 μg of oligo-dT for 10 mins. Samples were cooled on ice and mixed with 200 units of M-MLV reverse transcriptase (Promega, Southampton, UK) in its associated buffer, 400 μM of dNTPs (Promega), and 40 units of RNAseout (Invitrogen, Paisley, UK). Samples were then incubated at 37° C. for one hour and finally heated at 75° C. for 5 mins. PCR reactions (35 cycles, 94° C. 30 sec, 55° C. 30 sec, 72° C. 1 min) were carried out in a 20 μl reaction using JumpStart ReadyMix REDTaq DNA polymerase (Sigma-Aldrich) using an identical amount of cDNA per reaction with 1 μM of forward and reverse primers.

[4] = test system: KG1a, HL60 and U937 leukaemic cell lines; assay: Growth of leukaemic cell lines over 48 hours (Example 3); details: 20 μg/ml
Protocol: KG1a, HL60 and U937 cell lines were seeded as described in Example 1.
All cell lines were grown with HXP peptide (20 μg/ml) or CXP (20 μg/ml). Cell lines were cultured for various time points at 37° C., 5% CO2 in humidified atmosphere and enumerated at various time points.

[5] = test system: leukaemic cell lines KG1a, KG1, HL60 and U937; assay: Leukaemic cell lines culture, trypan blue cell count (Example 1); details: 20 μg/ml
Protocol: KG1a, KG1, HL60 and U937 cell lines were obtained from the ATCC (catalogue Nos. CCL-246.1, CCL-246, CCL-240 and CRL-1593.2, respectively.
Cell lines were seeded at 1-5×10^5 cells/ml in liquid culture system made of RPMI-1640 medium (Life Technologies, UK) supplemented with Foetal Calf Serum (10% Sigma Aldrich) and gentamycin (50 μg/ml, Life Technologies) and at least in duplicate. When required the HXP peptide was added to the medium (20 μg/ml). Cell lines were cultured for up to 7 days at 37° C., 5% CO2 in humidified atmosphere. Cultured cells were then counted at various time points using trypan blue exclusion method described above.

[6] = test system: PBX/HOX dimers; assay: Western blotting of PBX and PBX/HOX dimers in CD133+ cells (Example 3); details: 20 μg/ml, EDC cross-linking
Protocol: (§2) CD133+ cells (another name for AC133+ cells) were seeded in duplicate at 4×10^4 cells/ml in IMDM (Life Technologies), 10% FCS (Sigma Aldrich) and gentamycin (50 μg/ml Life Technologies) and Thrombopoietin (TPO) 10 ng/ml, Flt3-Ligand (FL) 50 ng/ml & c-KitL (K) 20 ng/ml), all obtained from R and D systems Ltd., UK. (Forraz et al., 2002). The HXP peptide (N-term: WYPWMKKHHRQIKIWFQNRRMKWKK: C-term; Eurogentec, Belgium) and control CXP peptide (N-term: WCCLADRHGRQIKIWFQNRRMKWKK: C-term; Eurogentec, Belgium) were added to culture medium at a concentration of 20 μg/ml. To withdraw peptides from culture, cells were washed twice in IMDM or RPMI and reseeded at prewash cell densities. Primary cells were cultured for 3 weeks at 37° C., 5% CO2 in humidified atmosphere and enumerated by a […] exclusion method with a heamocytometer.
Protein was extracted from HXP-treated or CXP-treated CD133+ cells (20 μg/ml). C-20 antibody that recognises all three human PBX gene proteins (sc-888, Santa Cruz Biotechnology Inc., USA; Monica et al., 1991). Protein cross linking was performed with 2 mM 1-ethyl-3-[3-(dimethylamino)propyl]carbodiimide (EDC) (Pierce Biotechnology, USA), in cell lysates diluted 1:10 in conjugation buffer (0.1M 2-[N-morpholino]ethane sulphonic acid, pH 5). […]

[7] = test system: CD133+ cells; assay: Cell cycle status of CD133+ cells (G0-G1)
Protocol: as §1, §2

Substance: WYPWMKKHHRQIKIWFQNRRMKWKK [HXP peptide]
- markers of maturation/differentiation (CD38) [1]: elevated
- markers of stem/progenitor cells (AC133, CD34, HOXB4, HOXB8 and HOXA9) [1]: diminished
- effect on cell cycle of more mature leukaemic cells ([2]; HL60 and U937): slowed
- effect on cell cycle of immature leukaemic cells ([2]; KG1 and KG1a): may be propelled into the cell cycle
- MMP19 expression ([3]; KG1a): down-regulated
- MMP1 expression ([3]; KG1a and U937 cells): down-regulated
- CD38 gene expression ([3]; KG1a cell line): up-regulation
- CD133, CD34, HOXB4, B8 and A9 gene expression ([3]; KG1a cell line): down-regulation
- expression of the other genes examined ([3]; KG1a, HL60, U937, except CDC25, MMP1, MMP19 as stated): did not alter
- CD38 gene expression ([3]; U937 and HL60 cell lines): up-regulated
- HOXB4 and A9 gene expression ([3]; U937 and HL60 cell lines): down-regulation
- HOXB8 gene expression ([3]; U937 and HL60 cell lines): unchanged
- CDC25 expression ([3]; U937 cells): down-regulated
- N-RAS oncogene expression ([3]; all of the cell lines (KG1a, HL60, U937)): completely down-regulated
- cell growth inhibition on leukaemic cell lines [4]: potent cell growth inhibition
- time at which cell growth inhibition is apparent [4]: two
- inhibition of leukaemic cell lines (cell growth) [5]: inhibits
- binding of PBX to other proteins / formation of PBX/HOX dimers [6]: prevented binding of PBX to other proteins; also recorded: distrupted the formation of PBX/HOX dimers
- proportion of cells in phase G0-G1 upon withdrawing HXP peptide ([7]; compared to the HXP peptide-treated group): lower proportion of cells remained in phase G0-G1
- more cells in phase G0-G1 of the cell cycle than the control group ([7]; day 18 of culture, vs CXP4 treated cells, p<0.05): 9.9%
